From the supplement of paper PMC11997997

Legend:
[1] = test system: murine bone marrow-derived macrophages; experiment: area under cytotoxicity dose-response curve (AUC (% cytotoxicity x dose, relative)); higher = more cytotoxic; conditions: duration: 6 days; dose range: 0.13-80 uM, 8 points
How it was run: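 An 8-point, 2.5-fold dilution series (final 80–0.13 μM) was applied for 6 days at 37 °C in 5% CO2 to primary murine bone marrow-derived macrophages plated in opaque 384-well plates. Promega's CellTiter-Glo luminescence assay measured viability, and percent cytotoxicity was normalised against vehicle and positive control wells. The area under the dose–response curve, worked out in GraphPad Prism version 10, is the reported cytotoxicity measure.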

[2] = test system: Mycobacterium tuberculosis CDC1551 (intracellular, in murine BMDM); experiment: area under intracellular growth-inhibition dose-response curve (AUC (% inhibition x dose, relative)); higher = more potent; conditions: duration: 6 days; dose range: 0.13-80 uM, 8 points
How it was run: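 Each value is an area under the growth-inhibition dose–response curve, calculated with GraphPad Prism. Infected primary murine bone marrow-derived macrophages, carrying luciferase-expressing M. tuberculosis CDC1551 at multiplicity of infection 1, were treated for 6 days with an 8-dose, 2.5-fold series (final 80–0.13 μM) in 384-well opaque plates. Readout was by Bright-Glo luciferin assay, normalised to a reference drug control and the lowest-concentration wells.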

SMILES | area under cytotoxicity dose-response curve [1] | area under intracellular growth-inhibition dose-response curve [2]
O=C1CN(C(=O)COC(=O)c2ccc(Br)o2)c2ccccc2N1 | 23.5 | 58.2
CC1CCc2nc3sc4c(c3c(N)c2C1)CCCC4 (centres undefined) | 58.3 | 174
O=C(Nc1ccc(F)cc1)NC1CCCCCCC1 | 144 | 182
Cn1cc(/C=N/NC(N)=S)c2ccccc21 | < 0 | 275
COc1cc(OC)c([N+](=O)[O-])cc1/C=N/NC(=O)c1ccncc1 | 19 | 242
CC(=O)O[C@H]1C[C@@]2(C)[C@@H](C[C@@H](O)[C@H]3[C@@]4(C)CC[C@@H](O)[C@@H](C)[C@@H]4CC[C@@]32C)/C1=C(\CCC=C(C)C)C(=O)[O-].[Na+] | 74.7 | 182
[O-][n+]1onc2c3cc(-c4ccccc4)[nH]c3ccc21 | 40.6 | 74.3
CNC(=S)N/C=N/OCc1c(Cl)cccc1Cl | 86.9 | 83.8
COc1cccc(OCC(=O)NC2CCCCC2)c1 | 94 | 226
Cc1ccnc2c1ccc1c(C)ccnc12.O | 38.9 | 199
c1csc(Cc2nn3c(-c4[nH]nc5c4CCC5)nnc3s2)c1 | 44.4 | 251
CC1=CCCC(C)(C)C1/C=C/C(C)=N/NC(=O)c1ccncc1 (centres undefined) | < 0 | 247
O=C(NCCN1CCOCC1)c1cc([N+](=O)[O-])cc([N+](=O)[O-])c1 | 8.42 | 168
NC(=S)N/N=C/c1ccc(-c2ccc([N+](=O)[O-])cc2)o1 | < 0 | 217
CCCc1cc(C(=O)NC2CCCCC2)no1 | 108 | 232
Cc1ccc(NC(=O)c2cc(S(=O)(=O)N3CCCCC3)ccc2N2CCOCC2)cc1S(=O)(=O)N(C)C | 58.9 | < 0
O=C(c1cccc(C(F)(F)F)c1)N1CCCC1 | < 0 | 232
CN(C)c1ccc(S(=O)(=O)N2CCCCC2)cc1NC(=O)CCNC(=O)c1ccccc1Cl | < 0 | 67.5
O=C(NCCc1ccc(F)cc1)NC12CC3CC(CC(C3)C1)C2 | 60.1 | 190
Cc1ccc(-c2cc(-c3ccccc3)cc(-c3ccccc3)[n+]2-c2ccccc2)cc1.[O-][Cl+3]([O-])([O-])[O-] | 23.7 | 91.8
CCC(=O)NC(=S)Nc1ccc(N2CCN(C(=O)c3ccc(Cl)cc3)CC2)cc1 | 3.79 | 269
Cc1ccc2ccc3ccc(C)nc3c2n1 | 160 | 29.4
